Test results from US12618095B2, “Medium for Bacillus cereus group detection” (SHIMADZU DIAGNOSTICS CORPORATION, priority 2020, dated 2026).

Assays:
Assay in all cases: Test Example 10: agar medium with aztreonam or ceftazidime
E. coli = assay type: cell-based; conditions: 22 hours; for Number of colonies: ATCC8739
B. cereus = conditions: 22 hours
E. amnigenus = conditions: 22 hours; for Number of colonies: ATCC33072
B. thuringiensis = conditions: NBRC101235, 22 hours
[1] = Ceftazidime 0.05 mg, 10^1 cfu/mL
[2] = Ceftazidime 0.05 mg, 10^2 cfu/mL
[3] = Ceftazidime 0.05 mg, 10^3 cfu/mL
[4] = Ceftazidime 0.05 mg, 10^4 cfu/mL
[5] = Ceftazidime 0.05 mg, 10^5 cfu/mL
[6] = Ceftazidime 0.5 mg, 10^1 cfu/mL
[7] = Ceftazidime 0.5 mg, 10^2 cfu/mL
[8] = Ceftazidime 0.5 mg, 10^3 cfu/mL
[9] = Ceftazidime 0.5 mg, 10^4 cfu/mL
[10] = Ceftazidime 0.5 mg, 10^5 cfu/mL

## CC(C)(O/N=C(\C(=O)N[C@@H]1C(=O)N2C(C(=O)[O-])=C(C[n+]3ccccc3)CS[C@H]12)c1csc(N)n1)C(=O)O [ceftazidime]
E. coli; [1]
  Number of colonies: −
E. coli; [2]
  Number of colonies: −
E. coli; [3]
  Number of colonies: −
E. coli; [4]
  Number of colonies: −
E. coli; [5]
  Number of colonies: −
E. coli; [6]
  Number of colonies: −
E. coli; [7]
  Number of colonies: −
E. coli; [8]
  Number of colonies: −
E. coli; [9]
  Number of colonies: −
E. coli; [10]
  Number of colonies: −
E. coli; Ceftazidime 5 mg, 10^1 cfu/mL
  Number of colonies: −
E. coli; Ceftazidime 5 mg, 10^2 cfu/mL
  Number of colonies: −
E. coli; Ceftazidime 5 mg, 10^3 cfu/mL
  Number of colonies: −
E. coli; Ceftazidime 5 mg, 10^4 cfu/mL
  Number of colonies: −
E. coli; Ceftazidime 5 mg, 10^5 cfu/mL
  Number of colonies: −
E. coli; added to TSA-BC, 30° C.
  formation of a white colony: suppressed
B. cereus; ATCC11778, Ceftazidime 0.05 mg, 10^1 cfu/mL
  Number of colonies: 2
B. cereus; ATCC11778, Ceftazidime 0.05 mg, 10^2 cfu/mL
  Number of colonies: 11
B. cereus; ATCC11778, Ceftazidime 0.05 mg, 10^3 cfu/mL
  Number of colonies: +
B. cereus; ATCC11778, Ceftazidime 0.05 mg, 10^4 cfu/mL
  Number of colonies: +
B. cereus; ATCC11778, Ceftazidime 0.05 mg, 10^5 cfu/mL
  Number of colonies: +
B. cereus; ATCC11778, Ceftazidime 0.5 mg, 10^1 cfu/mL
  Number of colonies: −
B. cereus; ATCC11778, Ceftazidime 0.5 mg, 10^2 cfu/mL
  Number of colonies: 13
B. cereus; ATCC11778, Ceftazidime 0.5 mg, 10^3 cfu/mL
  Number of colonies: +
B. cereus; ATCC11778, Ceftazidime 0.5 mg, 10^4 cfu/mL
  Number of colonies: +
B. cereus; ATCC11778, Ceftazidime 0.5 mg, 10^5 cfu/mL
  Number of colonies: +
B. cereus; ATCC11778, Ceftazidime 5 mg, 10^1 cfu/mL
  Number of colonies: −
B. cereus; ATCC11778, Ceftazidime 5 mg, 10^2 cfu/mL
  Number of colonies: 17
B. cereus; ATCC11778, Ceftazidime 5 mg, 10^3 cfu/mL
  Number of colonies: +
B. cereus; ATCC11778, Ceftazidime 5 mg, 10^4 cfu/mL
  Number of colonies: +
B. cereus; ATCC11778, Ceftazidime 5 mg, 10^5 cfu/mL
  Number of colonies: +
B. cereus; ATCC19637, Ceftazidime 0.05 mg, 10^1 cfu/mL
  Number of colonies: −
B. cereus; ATCC19637, Ceftazidime 0.05 mg, 10^2 cfu/mL
  Number of colonies: 7
B. cereus; ATCC19637, Ceftazidime 0.05 mg, 10^3 cfu/mL
  Number of colonies: +
B. cereus; ATCC19637, Ceftazidime 0.05 mg, 10^4 cfu/mL
  Number of colonies: +
B. cereus; ATCC19637, Ceftazidime 0.05 mg, 10^5 cfu/mL
  Number of colonies: +
B. cereus; ATCC19637, Ceftazidime 0.5 mg, 10^1 cfu/mL
  Number of colonies: −
B. cereus; ATCC19637, Ceftazidime 0.5 mg, 10^2 cfu/mL
  Number of colonies: 12
B. cereus; ATCC19637, Ceftazidime 0.5 mg, 10^3 cfu/mL
  Number of colonies: +
B. cereus; ATCC19637, Ceftazidime 0.5 mg, 10^4 cfu/mL
  Number of colonies: +
B. cereus; ATCC19637, Ceftazidime 0.5 mg, 10^5 cfu/mL
  Number of colonies: +
B. cereus; ATCC19637, Ceftazidime 5 mg, 10^1 cfu/mL
  Number of colonies: 3
B. cereus; ATCC19637, Ceftazidime 5 mg, 10^2 cfu/mL
  Number of colonies: 5
B. cereus; ATCC19637, Ceftazidime 5 mg, 10^3 cfu/mL
  Number of colonies: +
B. cereus; ATCC19637, Ceftazidime 5 mg, 10^4 cfu/mL
  Number of colonies: +
B. cereus; ATCC19637, Ceftazidime 5 mg, 10^5 cfu/mL
  Number of colonies: +
E. amnigenus; [1]
  Number of colonies: −
E. amnigenus; [2]
  Number of colonies: −
E. amnigenus; [3]
  Number of colonies: 1
E. amnigenus; [4]
  Number of colonies: 33
E. amnigenus; [5]
  Number of colonies: +
E. amnigenus; [6]
  Number of colonies: −
E. amnigenus; [7]
  Number of colonies: −
E. amnigenus; [8]
  Number of colonies: −
E. amnigenus; [9]
  Number of colonies: −
E. amnigenus; [10]
  Number of colonies: −
E. amnigenus; Ceftazidime 5 mg, 10^1 cfu/mL
  Number of colonies: −
E. amnigenus; Ceftazidime 5 mg, 10^2 cfu/mL
  Number of colonies: −
E. amnigenus; Ceftazidime 5 mg, 10^3 cfu/mL
  Number of colonies: −
E. amnigenus; Ceftazidime 5 mg, 10^4 cfu/mL
  Number of colonies: −
E. amnigenus; Ceftazidime 5 mg, 10^5 cfu/mL
  Number of colonies: −
E. amnigenus; added to TSA-BC, 30° C.
  formation of a white colony: suppressed
B. thuringiensis; [1]
  Number of colonies: 5
B. thuringiensis; [2]
  Number of colonies: 13
B. thuringiensis; [3]
  Number of colonies: +
B. thuringiensis; [4]
  Number of colonies: +
B. thuringiensis; [5]
  Number of colonies: +
B. thuringiensis; [6]
  Number of colonies: 3
B. thuringiensis; [7]
  Number of colonies: 10
B. thuringiensis; [8]
  Number of colonies: +
B. thuringiensis; [9]
  Number of colonies: +
B. thuringiensis; [10]
  Number of colonies: +
B. thuringiensis; Ceftazidime 5 mg, 10^1 cfu/mL
  Number of colonies: 4
B. thuringiensis; Ceftazidime 5 mg, 10^2 cfu/mL
  Number of colonies: 16
B. thuringiensis; Ceftazidime 5 mg, 10^3 cfu/mL
  Number of colonies: +
B. thuringiensis; Ceftazidime 5 mg, 10^4 cfu/mL
  Number of colonies: +
B. thuringiensis; Ceftazidime 5 mg, 10^5 cfu/mL
  Number of colonies: +
